Measured values reported in publication PMC11889516 (Microbial Biotechnology, 2025).
One block for each molecule: values may come before it.

Legend:
CYP116B234 = target: T1, CYP116B234 (Rhodococcus globerulus, UniProt A0ABU4C0V8); assay: UV-visible difference spectroscopy titration (heme spin-state shift); also NADPH consumption and turnover with purified enzyme; format: binding
T1 construct: gene R3Q16_26300; full-length, N-terminal polyhistidine tag (GenBank MCE4265947.1)
T1 sequence (A0ABU4C0V8 1-767): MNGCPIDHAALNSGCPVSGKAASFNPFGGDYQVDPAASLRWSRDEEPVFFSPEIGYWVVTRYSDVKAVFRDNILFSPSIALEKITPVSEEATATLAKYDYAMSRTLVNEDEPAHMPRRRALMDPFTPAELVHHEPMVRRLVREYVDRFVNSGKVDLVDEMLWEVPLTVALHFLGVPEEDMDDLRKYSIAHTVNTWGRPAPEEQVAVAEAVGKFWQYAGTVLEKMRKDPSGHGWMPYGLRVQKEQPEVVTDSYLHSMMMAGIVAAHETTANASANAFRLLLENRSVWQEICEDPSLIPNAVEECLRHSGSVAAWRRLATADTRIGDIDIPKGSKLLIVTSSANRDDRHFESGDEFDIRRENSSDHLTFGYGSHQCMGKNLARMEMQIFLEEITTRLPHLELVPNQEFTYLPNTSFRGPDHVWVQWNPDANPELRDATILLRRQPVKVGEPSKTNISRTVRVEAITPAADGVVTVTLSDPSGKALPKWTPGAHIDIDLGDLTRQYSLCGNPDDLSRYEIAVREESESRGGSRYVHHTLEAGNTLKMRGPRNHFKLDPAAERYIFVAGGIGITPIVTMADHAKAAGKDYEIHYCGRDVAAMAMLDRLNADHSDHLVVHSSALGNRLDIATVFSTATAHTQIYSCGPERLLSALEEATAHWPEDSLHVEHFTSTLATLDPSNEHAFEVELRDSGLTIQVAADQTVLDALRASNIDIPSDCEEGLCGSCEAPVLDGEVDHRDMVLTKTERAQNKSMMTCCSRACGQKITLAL

purified protein [1] = substrate: NC(=O)C1=CN([C@@H]2O[C@H](COP(=O)(O)OP(=O)(O)OC[C@H]3O[C@@H](n4cnc5c(N)ncnc54)[C@H](O)[C@@H]3O)[C@@H](O)[C@H]2O)C=CC1; assay: purified protein; details: FMN, [2Fe-2S], heme reductase domain; varied: cofactor
purified protein [2] = substrate: NC(=O)C1=CN([C@@H]2O[C@H](COP(=O)(O)OP(=O)(O)OC[C@H]3O[C@@H](n4cnc5c(N)ncnc54)[C@H](OP(=O)(O)O)[C@@H]3O)[C@@H](O)[C@H]2O)C=CC1; assay: purified protein; format: biochemical, Rhodococcus globerulus; details: FMN, [2Fe-2S], heme reductase domain; varied: cofactor

- Kd (CYP116B234): 700 ± 100 nM
Molecule: O=C(O)Cc1ccccc1O [2-HPA, 2‐hydroxyphenylacetic acid]

- Kd (CYP116B234): 1900 ± 100 nM
Molecule: O=C(O)CCc1ccccc1O [HPPA, 3‐(2‐hydroxyphenyl)propionic acid]

B1: CYP116B234 (Rhodococcus globerulus) (protein)
chain: T1 sequence (A0ABU4C0V8 1-767)
notes: full-length, N-terminal polyhistidine tag (GenBank MCE4265947.1)
- Km (purified protein [1]): 240 ± 20 µM
- Km (purified protein [2]): 0.5 ± 0.4 µM
